# Experimental data taken from EP4206196A1, “PYRIMIDINE SUBSTITUTED DERIVATIVES AS TYK2 INHIBITORS” (Almirall S.A., priority 2021, dated 2023).
# “And” between values parts separate entries of the source, which are not always exact repeats. Equal values may be shown once. Read-outs that look alike come from different tables or passages of the source.
# How the values were obtained:
# [1] = biological target: T1, TYK2 (JH2domain-pseudokinase) (Homo sapiens, UniProt P29597); assay: TYK2 JH2 domain binding assay (KINOMEscan)
# T1 construct: TYK2 (JH2domain-pseudokinase)-tagged T7 phage strains were prepared in an E. coli host derived from the BL21 strain; made in house; host or cells: E. coli BL21-derived host (T7 phage) or HEK-293 cells
# In short: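 Competition binding of DNA-tagged TYK2 JH2 pseudokinase domain against immobilised affinity ligand, 1 h at room temperature in SeaBlock/PBS/Tween/DTT buffer with about 1% DMSO. Bound kinase eluted and quantified by qPCR. Kd taken from 11-point 3-fold series, usually 30,000 nM top, fitted by Levenberg-Marquardt nonlinear least squares.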
# [2] = test system: STAT1/3 through TYK2/JAK1; assay: IFNa induced STAT phosphorylation in HEK293 cells (SIE-bla reporter gene); assay type: cell-based; settings: HEK293T-sie-bla cells, IFNa at EC80, 4 hours, read-out: Inhibition of IFNa induced STAT phosphorylation HEK293 cells IC50
# In short: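 HEK293T cells carrying a SIE-driven β-lactamase reporter were co-treated with compound (1/5 serial dilution, 10 points, 0.1% DMSO final) and IFNa at EC80 for 4 h at 37°C. β-Lactamase substrate was added to stop the stimulation, followed by overnight dark incubation and FRET read. IC50 from a four-parameter logistic fit.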
# [3] = test system: STAT6 through JAK1/JAK3; assay: IL4 induced STAT phosphorylation in Ramos cells (STAT6-bla reporter gene); assay type: cell-based; settings: for inhibition at 5 µM / inhibition at 25 µM: Homo sapiens, Ramos; for inhibition at 25 µM: compound concentration 25 µM
# Protocol: Stimulation of RAMOS cells with interleukine IL-4 activates the signaling pathway of STAT6 through JAK1/JAK3. In this assay, measurement of the activity of the reporter gene β-lactamase expression was used as the readout.
# Ramos STAT6-bla RA-1 cell line were purchased from Life Technologies (ref. #K1243) and cultured as specified by the provider. A number of 30.000 cells per well (35 µl) were plated in a 384-well plate (Corning ref.# 3712) and cultured overnight at 37°C with 5% CO2 in a complete Optimem media (Life Technologies ref. #11058-021) containing 556 µg/mL CD40 (Life Technologies ref. #PHP0025), 0.5% (v/v) heat inactivated FBS (Life Technologies ref. #10082-147), 10 µM non-essential aminoacids NEAA (Sigma ref. #M7145), 100 µM Sodium Pyruvate (Gibco ref. #11360-039) and 100 U/mL Penicillin (Sigma ref. #P0781). Compounds were initially dissolved in 100% DMSO. Compound curves were then prepared using a 1/5 serial dilution (10 dilutions). The dilutions were directly diluted in complete Optimem media without CD40 at 40-fold their final concentration in 20% DMSO. IL-4 initial solution (Prepotech ref. #200-04) was prepared at 10-fold its EC80 in complete Optimem media without CD40. Compounds and IL-4 were added simultaneously to the wells with cells and incubated during 4 hours at 37°C (the final DMSO was 0.1%). The β-lactamase substrate (LifeTechnologies ref.#K1138) was prepared at 6-fold its final concentration as specified by the provider. Then 10 µL of the mixture was added to the wells to stop the stimulation. Plate was left in the dark over-night. Then a FRET reading was performed on an appropriate plate reader.
# All experiments were analysed using an ExcelFit template and the four-parameter log equation. As % vs compound concentration. TABLE 3: Inhibition of IL4 induced STAT phosphorylation in Ramos cells.
# T1 sequence (P29597 589-875 limits assumed): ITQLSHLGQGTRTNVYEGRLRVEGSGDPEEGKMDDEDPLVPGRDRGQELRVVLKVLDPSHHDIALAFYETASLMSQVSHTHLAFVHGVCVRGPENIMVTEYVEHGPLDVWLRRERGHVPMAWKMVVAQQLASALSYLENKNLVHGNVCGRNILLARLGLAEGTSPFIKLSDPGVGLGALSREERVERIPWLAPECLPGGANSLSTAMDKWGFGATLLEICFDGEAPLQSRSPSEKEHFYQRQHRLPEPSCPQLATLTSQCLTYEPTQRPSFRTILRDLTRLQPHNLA
Compound,Kd [1],"IC50 ([2]; Homo sapiens, HEK293)",inhibition at 5 µM ([3]; compound concentration 5 µM),"% Inhibition of IL4 induced STAT phosphorylation Ramos cells ([3]; compound concentration 5 µM, 5 µM)",inhibition at 25 µM [3],IC50 [2]
"COc1c(Nc2cc(NC(=O)C3CC3)ncn2)cccc1-c1ncn(C)n1 [Example 1, N-[6-[2-methoxy-3-(1-methyl-1,2,4-triazol-3-yl)anilino]pyrimidin-4-yl]cyclopropanecarboxamide]",1 to 10 nM,100 to 1000 nM,25%,,,
"COc1c(Nc2cc(Nc3cc(C)nc(C)n3)ncn2)cccc1-c1ncn(C)n1 [Example 4, N6-(2,6-dimethylpyrimidin-4-yl)-N4-[2-methoxy-3-(1-methyl-1,2,4-triazol-3-yl)phenyl]pyrimidine-4,6-diamine]",0.2 to 1 nM,10 to 100 nM,33%,,,
"COc1c(C)cccc1Nc1cc(Nc2cc(C)nc(C)n2)ncn1 [Example 6, N6-(2,6-dimethylpyrimidin-4-yl)-N4-(2-methoxy-3-methyl-phenyl)pyrimidine-4,6-diamine]",0.2 to 1 nM,10 to 100 nM,62%,,,
"Cc1cc(Nc2cc(Nc3ccccc3N(C)S(C)(=O)=O)ncn2)nc(C)n1 [Example 12, N-[2-[[6-[(2,6-dimethylpyrimidin-4-yl)amino]pyrimidin-4-yl]amino]phenyl]-N-methyl-methanesulfonamide]",< 0.2 nM,> 1000 nM,46%,,,
"Cc1cc(Nc2cc(Nc3ccc(-c4cnn(C)c4C)cc3N(C)S(C)(=O)=O)ncn2)nc(C)n1 [Example 25, N-[5-(1,5-dimethylpyrazol-4-yl)-2-[[6-[(2,6-dimethylpyrimidin-4-yl)amino]pyrimidin-4-yl]amino]phenyl]-N-methyl-methanesulfonamide]",< 0.2 nM,< 10 nM,57%,,,
"CN(c1ccccc1Nc1cc(Nc2cccc(C#N)n2)ncn1)S(C)(=O)=O [Example 32, N-[2-[[6-[(6-cyano-2-pyridyl)amino]pyrimidin-4-yl]amino]phenyl]-N-methyl-methanesulfonamide]",< 0.2 nM,< 10 nM,70%,,,
"COc1c(Nc2cc(Nc3cc(C)nc(C)n3)ncn2)cccc1-c1noc(C)n1 [Example 37, N4-(2,6-dimethylpyrimidin-4-yl)-N6-[2-methoxy-3-(5-methyl-1,2,4-oxadiazol-3-yl)phenyl]pyrimidine-4,6-diamine]",< 0.2 nM,10 to 100 nM,44%,,,
"Cc1cc(Nc2cc(Nc3ccc(C4CC4)cc3N(C)S(C)(=O)=O)ncn2)nc(C)n1 [Example 70, N-[5-cyclopropyl-2-[[6-[(2,6-dimethylpyrimidin-4-yl)amino]pyrimidin-4-yl]amino]phenyl]-N-methyl-methanesulfonamide]",< 0.2 nM,< 10 nM,,78% and 55%,,
"COc1cc(-c2cnn(C)c2C)ccc1Nc1cc(Nc2cc(C)nc(C)n2)ncn1 [Example 80, N6-[4-(1,5-dimethylpyrazol-4-yl)-2-methoxy-phenyl]-N4-(2,6-dimethylpyrimidin-4-yl)pyrimidine-4,6-diamine]",< 0.2 nM,10 to 100 nM,47%,,,
"Cc1cc(Nc2cc(Nc3ccc(-c4cnn(C)c4C)cc3S(C)(=O)=O)ncn2)nc(C)n1 [Example 86, N4-[4-(1,5-dimethylpyrazol-4-yl)-2-methylsulfonyl-phenyl]-N6-(2,6-dimethylpyrimidin-4-yl)pyrimidine-4,6-diamine]",< 0.2 nM,< 10 nM,,,78%,
"Cc1cc(Nc2cc(Nc3ncc(-c4cnn(C)c4C)cc3N(C)S(C)(=O)=O)ncn2)ncc1F [Example 103, N-[5-(1,5-dimethylpyrazol-4-yl)-2-[[6-[(5-fluoro-4-methyl-2-pyridyl)amino]pyrimidin-4-yl]amino]-3-pyridyl]-N-methyl-methanesulfonamide]",< 0.2 nM,< 10 nM,49%,,,
"COc1c(-c2ncn(C)n2)ccnc1Nc1cc(Nc2cc(C)nc(C)n2)ncn1 [Example 119, N6-(2,6-dimethylpyrimidin-4-yl)-N4-[3-methoxy-4-(1-methyl-1,2,4-triazol-3-yl)-2-pyridyl]pyrimidine-4,6-diamine]",< 0.2 nM,< 10 nM,47%,,,
"Cc1cc(Nc2cc(Nc3ncc(-c4cnn(C)c4C)cc3N(C)S(C)(=O)=O)ncn2)nc(C)n1 [Example 124, N-[5-(1,5-dimethylpyrazol-4-yl)-2-[[6-[(2,6-dimethylpyrimidin-4-yl)amino]pyrimidin-4-yl]amino]-3-pyridyl]-N-methyl-methanesulfonamide]",< 0.2 nM,< 10 nM,50%,,,
"Cc1cc(Nc2cc(Nc3ncccc3S(C)(=O)=O)ncn2)nc(C)n1 [Example 125, N4-(2,6-dimethylpyrimidin-4-yl)-N6-(3-methylsulfonyl-2-pyridyl)pyrimidine-4,6-diamine]",< 0.2 nM,< 10 nM,46%,,,
"Cc1cc(Nc2cc(Nc3ncc(-c4cnn(C)c4)cc3N(C)S(C)(=O)=O)ncn2)nc(C)n1 [Example 126, N-[2-[[6-[(2,6-dimethylpyrimidin-4-yl)amino]pyrimidin-4-yl]amino]-5-(1-methylpyrazol-4-yl)-3-pyridyl]-N-methyl-methanesulfonamide]",< 0.2 nM,< 10 nM,,,54%,
"Cc1cc(Nc2cc(Nc3ncc(-c4ocnc4C)cc3N(C)S(C)(=O)=O)ncn2)nc(C)n1 [Example 170, N-[2-[[6-[(2,6-dimethylpyrimidin-4-yl)amino]pyrimidin-4-yl]amino]-5-(4-methyl-1,3-oxazol-5-yl)pyridin-3-yl]-N-methylmethanesulfonamide]",< 0.2 nM,10 to 100 nM,,,,
"Cc1cc(Nc2cc(Nc3ncc(C4CC4)cc3P(C)(C)=O)ncn2)nc(C)n1 [Example 171, 4-N-(5-cyclopropyl-3-dimethylphosphorylpyridin-2-yl)-6-N-(2,6-dimethylpyrimidin-4-yl)pyrimidine-4,6-diamine]",< 0.2 nM,10 to 100 nM,,,,
"Cc1cc(Nc2cc(Nc3ncccc3C(C)(C)O)ncn2)nc(C)n1 [Example 172, 2-[2-[[6-[(2,6-dimethylpyrimidin-4-yl)amino]pyrimidin-4-yl]amino]pyridin-3-yl]propan-2-ol]",0.2 to 1 nM,100 to 1000 nM,,,,
"COc1cc(-c2cnn(C)c2C)c(C)nc1Nc1cc(Nc2cc(C)ncn2)ncn1 [Example 176, N6-[5-(1,5-dimethylpyrazol-4-yl)-3-methoxy-6-methyl-2-pyridyl]-N4-(6-methylpyrimidin-4-yl)pyrimidine-4,6-diamine]",0.2 to 1 nM,10 to 100 nM,,,,
"N4-(2,6-dimethylpyrimidin-4-yl)-N6-(3-methoxy-5-tetrahydropyran-2-yl-2-pyridyl)pyrimidine-4,6-diamine [Example 166]",1 to 10 nM,,,,,100 to 1000 nM
"N4-(2,6-dimethylpyrimidin-4-yl)-N6-[2-ethoxy-3-(1-methyl-1,2,4-triazol-3-yl)phenyl]pyrimidine-4,6-diamine [Example 45]",0.2 to 1 nM,,,,,100 to 1000 nM
"N4-(2,6-dimethylpyrimidin-4-yl)-N6-[4-(3-methylimidazol-4-yl)-2-methylsulfonyl-phenyl]pyrimidine-4,6-diamine [Example 26]",0.2 to 1 nM,,,,,100 to 1000 nM
"N-[5-(1,5-dimethylpyrazol-4-yl)-2-[[6-[(2,6-dimethylpyrimidin-4-yl)amino]pyrimidin-4-yl]amino]-3-pyridyl]-N-(trideuteriomethyl)methanesulfonamide [Example 133]",< 0.2 nM,,,,,< 10 nM
